Source: ChEMBL document CHEMBL1126226, “The discovery of a new structural class of potent orally active leukotriene D4 antagonists” (Bioorg Med Chem Lett, 1992)

Columns and labels:
[1] = target: T1, Cysteinyl leukotriene receptor 1 (Cavia porcellus, UniProt Q2NNR5); test: Inhibitory concentration against [3H]Leukotriene D4 binding to guinea-pig lung membranes was determined; experiment 1; assay type: tissue-based, Membrane
T1 sequence (Q2NNR5 whole entry): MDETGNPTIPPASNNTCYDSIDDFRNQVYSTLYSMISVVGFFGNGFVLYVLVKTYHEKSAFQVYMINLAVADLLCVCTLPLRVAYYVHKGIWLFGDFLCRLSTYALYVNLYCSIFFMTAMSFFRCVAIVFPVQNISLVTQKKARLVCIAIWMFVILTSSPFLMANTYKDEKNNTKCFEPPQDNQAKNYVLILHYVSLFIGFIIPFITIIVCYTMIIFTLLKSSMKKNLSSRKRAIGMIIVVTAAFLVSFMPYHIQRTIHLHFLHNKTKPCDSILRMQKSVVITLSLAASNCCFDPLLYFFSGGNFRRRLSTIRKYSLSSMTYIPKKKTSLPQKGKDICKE

[2] = Plasma clearance was estimated from the AUC after 5 mg/kg intravenous dosing in rats; assay type: ADME, organism-based; design: dose 5 mg/kg, route intravenous; settings: rat
[3] = target: T1, Cysteinyl leukotriene receptor 1; test: Inhibitory concentration against [3H]Leukotriene D4 binding to guinea-pig lung membranes was determined; experiment 2; assay type: tissue-based, Membrane
[4] = target: T1, Cysteinyl leukotriene receptor 1; test: Inhibitory concentration against [3H]Leukotriene D4 binding to guinea-pig lung membranes was determined; assay type: tissue-based, Membrane
[5] = target: T1, Cysteinyl leukotriene receptor 1; test: Inhibition of Leukotriene D4 induced contraction of guinea-pig trachea was determined; assay type: functional, tissue-based; settings: read-out: pA2 (converted)
[6] = system: Mus musculus; test: The compound was tested for average percentage increase of fatty acyl Co-A oxidase activity after 4 days of dosing in mice at 100 mg/kg peroral administration; assay type: functional; settings: route oral
[7] = system: Monkey; test: Inhibition of Leukotriene D4 induced bronchoconstriction in squirrel monkey, 4 hr pretreatment at 0.1 mg/kg peroral administration; assay type: functional; settings: in Primates, route oral
[8] = system: Cavia porcellus; test: Effective dose in guinea pig on intravenous administration; assay type: functional
[9] = system: Mus musculus; test: The compound was tested for average percentage increase of fatty acyl Co-A oxidase activity after 4 days of dosing in mice at 400 mg/kg peroral administration; assay type: functional; settings: route oral
[10] = The apparent total plasma clearance in monkey; assay type: ADME, organism-based; settings: cercopithecidae
[11] = system: Monkey; test: Inhibition of Leukotriene D4 induced bronchoconstriction in squirrel monkey, 4 hr pretreatment, 0.1 mg/kg peroral administration; assay type: functional; settings: in Primates, route oral
[12] = system: Rattus norvegicus; test: Percent inhibition of Antigen induced dyspnea in hyperractive rats by the compound at 0.5 mg/kg concentration was determined after peroral administration, 2 hr pretreatment; assay type: functional; settings: route oral
[13] = target: T1, Cysteinyl leukotriene receptor 1; test: Inhibitory concentration against [3H]Leukotriene D4 binding to guinea-pig lung membranes was determined (Experiment 1); assay type: tissue-based, Membrane
[14] = target: T1, Cysteinyl leukotriene receptor 1; test: Inhibitory concentration against [3H]Leukotriene D4 binding to guinea-pig lung membranes was determined (Experiment 2); assay type: tissue-based, Membrane
[15] = system: Mus musculus; test: The compound was tested for average percentage increase of fatty acyl Co-A oxidase activity after 4 days of dosing mice at 400 mg/kg peroral administration; assay type: functional; settings: route oral
[16] = system: Rattus norvegicus; test: Percent inhibition of Antigen induced dyspnea in hyperactive rats by the compound at 0.5 mg/kg concentration was determined; assay type: functional

Compound | IC50 [1] | clearance [2] | IC50 [3] | IC50 [4] | further results
CCC(CSC(CCc1ccccc1-c1nn[nH]n1)c1cccc(OCc2ccc3ccc(Cl)cc3n2)c1)C(=O)[O-].[Na+] (stereo not drawn) | 0.8 nM | 61 mL/min/kg | 0.5 nM |  | 
O=C([O-])CCSC(CCc1ccccc1-c1nc[nH]n1)c1cccc(OCc2ccc3ccc(Cl)cc3n2)c1.[Na+] (stereo not drawn) |  | 64 mL/min/kg |  | 0.36 nM | 
CN(C)C(=O)CCSC(SCCC(=O)O)c1cccc(OCc2ccc3ccc(Cl)cc3n2)c1 (stereo not drawn) |  |  |  | 14 nM | 
CCC[C@H](CS[C@@H](CCc1ccccc1C(C)(C)O)c1cccc(/C=C/c2ccc3ccc(Cl)cc3n2)c1)C(=O)O [L-695499] |  |  |  | 0.9 nM | Kb [5]: 1.58 nM; FACO Activity [6]: 38%; inhibition in vivo at 0.1 mg/kg [7]: 72%; ED50 [8]: 2 µg/kg
CCC(CSC(CCc1ccccc1-c1nnnn1C)c1cccc(OCc2ccc3ccc(Cl)cc3n2)c1)C(=O)[O-].[Na+] (stereo not drawn) |  | 18 mL/min/kg |  | 0.4 nM | 
O=C([O-])CCSC(CCc1ccccc1C(=O)N1CCCCC1)c1cccc(OCc2ccc3ccc(Cl)cc3n2)c1.[Na+] (stereo not drawn) |  | 55 mL/min/kg |  | 0.6 nM | 
CC(CCC(SCCC(=O)O)c1cccc(OCc2ccc3ccc(Cl)cc3n2)c1)CC(=O)N(C)C (stereo not drawn) |  |  |  | 8.6 nM | 
CN(C)C(=O)CCS[C@H](SCCC(=O)O)c1cccc(/C=C/c2ccc3ccc(Cl)cc3n2)c1 [MK-571] |  |  |  | 3.9 nM | Kb [5]: 1.58 nM; FACO Activity [9]: 62%; clearance [10]: 1.2 mL/min/kg; inhibition in vivo at 0.1 mg/kg [11]: 60%; ED50 [8]: 2.8 µg/kg
CN(C)C(=O)CCSC(CCc1ccccc1C(=O)O)c1cccc(OCc2ccc3ccc(Cl)cc3n2)c1 (stereo not drawn) |  |  |  | 1.9 nM | clearance [10]: 15 mL/min/kg; inhibition in vivo at 0.5 mg/kg [12]: 54%
CN(C)C(=O)CCSC(SCCC(=O)O)c1cccc(CCc2ccc3ccc(Cl)cc3n2)c1 (stereo not drawn) |  |  |  |  | IC50 [13]: 26 nM; IC50 [14]: 36 nM
CCC(CSC(CCc1ccccc1C(=O)O)c1cccc(OCc2ccc3ccc(Cl)cc3n2)c1)C(=O)[O-].[Na+] (stereo not drawn) | 2 nM | 8.8 mL/min/kg | 1 nM |  | 
CN(C)C(=O)c1ccccc1CCC(SCCC(=O)O)c1cccc(OCc2ccc3ccc(Cl)cc3n2)c1 (stereo not drawn) |  |  |  | 0.95 nM | 
CS(=O)(=O)Nc1ccccc1CCC(SCCC(=O)[O-])c1cccc(OCc2ccc3ccc(Cl)cc3n2)c1.[Na+] (stereo not drawn) | 0.56 nM | 131 mL/min/kg | 0.6 nM |  | 
CN(C)C(=O)c1ccccc1CCC(SCCC(=O)[O-])c1cccc(OCc2ccc3ccc(Cl)cc3n2)c1.[Na+] (stereo not drawn) |  | 64 mL/min/kg |  | 0.95 nM | 
CCOC(=O)Nc1ccccc1CCC(SCC(CC)C(=O)[O-])c1cccc(CCc2ccc3ccc(Cl)cc3n2)c1.[Na+] (stereo not drawn) | 0.5 nM | 8.8 mL/min/kg | 0.6 nM |  | 
CC(CCC(SCCC(=O)O)c1cccc(/C=C/c2ccc3ccc(Cl)cc3n2)c1)CC(=O)N(C)C (stereo not drawn) |  |  |  | 1.3 nM | 
O=C([O-])CCSC(CCc1ccccc1)c1cccc(OCc2ccc3ccc(Cl)cc3n2)c1.[Na+] (stereo not drawn) |  | 2.9 mL/min/kg |  | 6.5 nM | 
NS(=O)(=O)c1ccccc1CCC(SCCC(=O)[O-])c1cccc(OCc2ccc3ccc(Cl)cc3n2)c1.[Na+] (stereo not drawn) | 0.4 nM | 106 mL/min/kg | 0.6 nM |  | 
CC(CSC(CCc1ccccc1C(=O)N(C)CO)c1cccc(OCc2ccc3ccc(Cl)cc3n2)c1)C(=O)O (stereo not drawn) |  |  |  | 3.6 nM | 
CN(C)C(=O)CCSC(SCCC(=O)O)c1cccc(SCc2ccc3ccc(Cl)cc3n2)c1 (stereo not drawn) |  |  |  | 75 nM | 
CCC(CSC(CCc1ccccc1C(=O)NS(=O)(=O)c1ccccc1C)c1cccc(OCc2ccc3ccc(Cl)cc3n2)c1)C(=O)[O-].[Na+] (stereo not drawn) | 1.4 nM | 15 mL/min/kg | 6.5 nM |  | 
CCC(CSC(CCc1ccccc1C#N)c1cccc(CCc2ccc3ccc(Cl)cc3n2)c1)C(=O)[O-].[Na+] (stereo not drawn) |  | 13 mL/min/kg |  | 1 nM | 
CCNC(=O)c1ccccc1CCC(SCC(CC)C(=O)[O-])c1cccc(OCc2ccc3ccc(Cl)cc3n2)c1.[Na+] (stereo not drawn) |  | 106 mL/min/kg |  | 0.45 nM | 

The next lines start with results.

IC50 [1] | clearance [2] | IC50 [3] | IC50 [4] | Compound | further results
0.6 nM | 35 mL/min/kg | 1 nM |  | CCC(CSC(CCc1ccccc1S(C)(=O)=O)c1cccc(OCc2ccc3ccc(Cl)cc3n2)c1)C(=O)[O-].[Na+] (stereo not drawn) | 
 | 2.2 mL/min/kg |  | 6.3 nM | CC(CSC(CCc1ccccc1C(C)C)c1cccc(OCc2ccc3ccc(Cl)cc3n2)c1)C(=O)[O-].[Na+] (stereo not drawn) | 
17 nM |  | 20 nM |  | C[C@H](CS[C@@H](CCc1ccccc1C(C)(C)O)c1cccc(OCc2ccc3ccc(Cl)cc3n2)c1)C(=O)[O-].[Na+] | Kb [5]: 5.01 nM; FACO Activity [15]: 10%; inhibition in vivo at 0.5 mg/kg [16]: 47%
5 nM |  | 7 nM |  | C[C@@H](CS[C@@H](CCc1ccccc1C(C)(C)O)c1cccc(OCc2ccc3ccc(Cl)cc3n2)c1)C(=O)[O-].[Na+] | Kb [5]: 1.58 nM; FACO Activity [15]: -7%; inhibition in vivo at 0.5 mg/kg [16]: 46%
2 nM |  | 4 nM |  | C[C@H](CS[C@H](CCc1ccccc1C(C)(C)O)c1cccc(OCc2ccc3ccc(Cl)cc3n2)c1)C(=O)[O-].[Na+] | Kb [5]: 0.794 nM; FACO Activity [9]: 128%; inhibition in vivo at 0.5 mg/kg [16]: 62%
0.2 nM |  | 0.3 nM |  | C[C@@H](CS[C@H](CCc1ccccc1C(C)(C)O)c1cccc(OCc2ccc3ccc(Cl)cc3n2)c1)C(=O)[O-].[Na+] | Kb [5]: 0.398 nM; FACO Activity [9]: 155%; inhibition in vivo at 0.5 mg/kg [16]: 63%
 | 58 mL/min/kg |  | 0.47 nM | CCC(CSC(CCc1ccccc1C(N)=O)c1cccc(OCc2ccc3ccc(Cl)cc3n2)c1)C(=O)[O-].[Na+] (stereo not drawn) | 
0.4 nM | 12 mL/min/kg | 0.49 nM |  | CC(CSC(CCc1ccccc1[N+](=O)[O-])c1cccc(OCc2ccc3ccc(Cl)cc3n2)c1)C(=O)[O-].[Na+] (stereo not drawn) | 
0.5 nM | 12 mL/min/kg | 0.85 nM |  | CC(CSC(CCc1ccccc1C(C)(C)O)c1cccc(OCc2ccc3ccc(Cl)cc3n2)c1)C(=O)[O-].[Na+] (stereo not drawn) | 
 |  |  | 0.52 nM | CC(CSC(CCc1ccccc1C(=O)N(C)C)c1cccc(OCc2ccc3ccc(Cl)cc3n2)c1)C(=O)O (stereo not drawn) | 
